The source of these data is patent publication US20250049800A1, “VCP/p97 INHIBITOR FOR THE TREATMENT OF CANCER” (CASI Pharmaceuticals, Inc., priority 2021, published 2025).

Type in all cases: cell-based
For assay [1], the system named is MOML-13 (Human Acute Myeloid Leukemia cell line). In words: Combination Index (Chou-Talalay) of Compound 1 with second therapeutic agents. The following applies: for effect of the combination with Compound 1: MOML-13 (BRCA2 mutant, FLT3 heterozygous); for Combination Index: agent in combination with Compound 1, CI scores across all 3 ratios averaged, MOML-13. How it is done:
(§1) Each combination was tested in 3 cell lines: MOML-13 (Human Acute Myeloid Leukemia cell line; Addex Bio), MV-4-11 (Human B Myelomoncytic Leukemia cell line; ATCC), and OCI-AML-3 (Human Acute Myeloid Leukemia cell line).
(§2) Within this range, 20 dose levels were tested for each combination, with each response determined in duplicate. […] The actual drug concentrations in the ratios were determined from the IC50 values obtained for each individual drug.
(§3) Raw data was analyzed using Graph Pad Prism, four parameter logistic fits, and Chou-Talalay drug combination analyses. […] For data points with Fe<0, the fractional effect was set to 0.001. Data points with Fe>0.99 or <0.01 were omitted from the Chou-Talalay analysis because the Chou-Talalay analysis fits data to the Log of the fractional effect, with equal weight applied across the range of effect, such that the high and low end of the dose response, very small changes in effect within the range of experimental error erroneously skew the outcome of the model fit.
(§4) A Combination Index (CI) vs Fractional Effect plot showing the actual combination index plotted vs Fractional effect value was plotted for each combination dose. In this analysis, CI=1 represents additive activity, CI>1 represent less than additive activity (often referred to as antagonism) and CI<1=synergistic activity (better than additive).

Assay [2] concerns MV-4-11 (Human B Myelomoncytic Leukemia cell line). The assay is described as above. Conditions: for effect of the combination with Compound 1: MV-4-11 (FLT3 homozygous mutant). How it is done: as §1, §2, §3, §4
Assay [3] has as its system OCI-AML-3 (Human Acute Myeloid Leukemia cell line). The assay is described as above. Conditions: for effect of the combination with Compound 1: OCI-AML-3 (FLT3 wildtype). How it is done:
as §1, §2, §3, §4

The subject of a further assay is Capan-1 (Pancreas). As to the kind of experiment: Cell Titer-Glo viability: single agent IC50 and Compound 1 + PARP inhibitor matrix (Bliss). The following applies: for # in matrix with Bliss >5: 6×6 matrix of PARP inhibitor with Compound 1; for IC50: Homo sapiens, 72 h, single agent, read-out: Absolute IC50. How it is done: (§5) The PARP inhibitors used for the study were talazoparib, olaparib and niraparib. […] was used as a reference control. […] For each drug agent on its own, IC50 values in each cell line were determined. Interactions of the combinations of Compound 1 and each PARP inhibitor was assessed as follows: […] Cisplatin and culture media were used as positive and negative control, respectively. The combination activities were assessed using CrownSyn software to determine synergy scores by Bliss Independence and Loewe additivity methods. […] Synergy scores calculated by both Bliss independence model and Loewe additivity model (see Greco, […]., Poch, G., Suhnel, J., Kundi, M., & Bodeker, W. (1992). Consensus on concepts and terminology for combined-action assessment: the […] agreement. […] Without being bound by theory, the Bliss independence model is often applied to asses synergy for non-interacting drugs that elicit their responses independently, e.g., by targeting separate pathways, whereas the Loewe additivity model may be more compatible where both drugs have similar modes of action on the same targets or pathways.
For orientation: ATP-based viability assays read luminescence as a measure of living cells.

A further assay relates to DU4475 (Breast). The description is as above. The following applies: for # in matrix with Bliss >5: 6×6 matrix of PARP inhibitor with Compound 1; for IC50: Homo sapiens, DU-4475, 72 h, single agent, read-out: Absolute IC50. As for the experimental part:
as §5

The subject of assay [4] is DoTc2 4510 (Uterus/Cervix). The assay is described as above. Conditions: for # in matrix with Bliss >5: 6×6 matrix of PARP inhibitor with Compound 1. How it is done:
as §5

A further assay relates to HCC1395 (Breast). Described as above. The following applies: for # in matrix with Bliss >5: 6×6 matrix of PARP inhibitor with Compound 1; for IC50: Homo sapiens, 72 h, single agent, read-out: Absolute IC50. As for the experimental part: as §5
Another assay has as its system HCC1806 (Breast). The description is as above. Conditions: for # in matrix with Bliss >5: 6×6 matrix of PARP inhibitor with Compound 1; for IC50: Homo sapiens, 72 h, single agent, read-out: Absolute IC50. How it is done:
as §5

The next assay has as its system HCC1937 (Breast). The assay is described as above. The following applies: for # in matrix with Bliss >5: 6×6 matrix of PARP inhibitor with Compound 1. As for the experimental part:
as §5

Another assay concerns IGR-OV1 (Ovary). Described as above. The following applies: for # in matrix with Bliss >5: 6×6 matrix of PARP inhibitor with Compound 1; for IC50: Homo sapiens, IGROV-1, 72 h, single agent, read-out: Absolute IC50. As for the experimental part: as §5
In another assay the test system is MX-1 (Breast). The assay is described as above. The following applies: for # in matrix with Bliss >5: 6×6 matrix of PARP inhibitor with Compound 1. How it is done:
as §5

For a further assay, the system named is OVCAR-8 (Ovary). The assay is described as above. The following applies: for # in matrix with Bliss >5: 6×6 matrix of PARP inhibitor with Compound 1; for IC50: Homo sapiens, 72 h, single agent, read-out: Absolute IC50. As for the experimental part: as §5
The test system of another assay is SK-OV-3 (Ovary). The assay is described as above. Conditions: for # in matrix with Bliss >5: 6×6 matrix of PARP inhibitor with Compound 1. How it is done:
as §5

Setting [5] is: Homo sapiens, single agent, read-out: Absolute IC50.

Consider `CC(C)C[C@H](NC(=O)CNC(=O)c1cc(Cl)ccc1Cl)B(O)O` [Ixazomib], for which the “effect of the combination with Compound 1” value (from here on “effect of the combination”) in assay [1], in [2] and in [3] was “antagonistic” each time. Besides, the “Combination Index” value turned out to be 1.413 in assay [1]; 1.546 in [2] (agent in combination with Compound 1, CI scores across all 3 ratios averaged, MV-4-11); 1.438 in assay [3] (agent in combination with Compound 1, CI scores across all 3 ratios averaged, OCI-AML-3).

One may read the IC50 as the concentration that gives 50% inhibition. With `NC(=O)c1cccc2cn(-c3ccc([C@@H]4CCCNC4)cc3)nc12` [Niraparib, niraparib], the “# in matrix with Bliss >5” value in the assay on Capan-1 (Pancreas) is recorded as 2/36; with DU4475 (Breast), 10/36; in assay [4], 6/36; in the assay on HCC1395 (Breast), 6/36; in the assay on HCC1806 (Breast), 9/36; in the assay with HCC1937 (Breast) it was 15/36. Besides, the “# in matrix with Bliss >5” value in the assay on IGR-OV1 (Ovary) is 7/36; with MX-1 (Breast), 4/36; with OVCAR-8 (Ovary), 9/36; in the assay on SK-OV-3 (Ovary), 8/36. Moreover, the IC50 is above 5 µM in the assay on Capan-1 (Pancreas); 1.02 µM in the assay with DU4475 (Breast); above 5 µM with HCC1395 (Breast); above 5 µM in the assay on HCC1806 (Breast); above 5 µM with IGR-OV1 (Ovary); above 5 µM in the assay with OVCAR-8 (Ovary).

Consider `O=C(c1cc(Cc2n[nH]c(=O)c3ccccc23)ccc1F)N1CCN(C(=O)C2CC2)CC1` [Olaparib, olaparib], for which the “# in matrix with Bliss >5” value in the assay on Capan-1 (Pancreas) is 4/36; with DU4475 (Breast) it was 13/36; in assay [4], 5/36; with HCC1395 (Breast) it was 8/36; with HCC1806 (Breast), 17/36; in the assay on HCC1937 (Breast), 23/36. For the same compound, the “# in matrix with Bliss >5” value in the assay on IGR-OV1 (Ovary) is reported as 12/36; with MX-1 (Breast) it was 3/36; in the assay with OVCAR-8 (Ovary), 8/36; with SK-OV-3 (Ovary), 10/36. The IC50 is above 5 µM in the assay with Capan-1 (Pancreas); 4.52 µM in the assay with DU4475 (Breast); above 5 µM in [4] (setting [5]); above 5 µM in the assay with HCC1395 (Breast); above 5 µM in the assay with HCC1806 (Breast); above 5 µM in the assay on IGR-OV1 (Ovary). For the same compound, the IC50 is above 5 µM in the assay on MX-1 (Breast) (single agent, read-out: Absolute IC50) and above 5 µM with OVCAR-8 (Ovary).

For `Cn1ncnc1[C@H]1c2n[nH]c(=O)c3cc(F)cc(c23)N[C@@H]1c1ccc(F)cc1` [Talazoparib], the “effect of the combination” value in assay [1] is recorded as “strong synergy”. In addition, the “# in matrix with Bliss >5” value is listed as 4/36 in the assay with Capan-1 (Pancreas); 15/36 with DU4475 (Breast); 5/36 in assay [4]; 0/36 in the assay with HCC1395 (Breast); 3/36 in the assay on HCC1806 (Breast); 8/36 in the assay with HCC1937 (Breast). Further, the “# in matrix with Bliss >5” value in the assay with IGR-OV1 (Ovary) is reported as 7/36; with MX-1 (Breast), 0/36; in the assay with OVCAR-8 (Ovary), 6/36; with SK-OV-3 (Ovary) it was 13/36. Also, the IC50 is 2.64 µM with Capan-1 (Pancreas); 0.03 µM with DU4475 (Breast); above 5 µM with HCC1395 (Breast); above 5 µM in the assay on HCC1806 (Breast); above 5 µM with HCC1937 (Breast) (setting [5]); above 5 µM in the assay with OVCAR-8 (Ovary). Also, the IC50 in the assay on SK-OV-3 (Ovary) (setting [5]) is above 5 µM.

In the case of `CC1(C)CCC(CN2CCN(c3ccc(C(=O)NS(=O)(=O)c4ccc(NCC5CCOCC5)c([N+](=O)[O-])c4)c(Oc4cnc5[nH]ccc5c4)c3)CC2)=C(c2ccc(Cl)cc2)C1` [Venetoclax], the “Combination Index” value in assay [1] turned out to be 0.730.

Turning to `Nc1ccn([C@@H]2O[C@H](CO)[C@@H](O)[C@@H]2O)c(=O)n1` [cytarabine], the “effect of the combination” value in [1], in assay [2] and in [3] was “additive effects” in each case.
